Test results as given in the NIST ThermoML archive (doi:10.1016/j.jct.2018.08.013).
“And” between values parts separate entries of the source, which are not always exact repeats. Equal values may be shown once.

Assays:
[1] = xn = mol fraction of the nth substance listed; conditions: 298 K; 100 kPa; Crystal of intercomponent compound 1; X-ray diffraction; x2 = 0.501
[2] = specific heat capacity at constant pressure; xn = mol fraction of the nth substance listed; conditions: 100 kPa, Crystal of intercomponent compound 1, x2 = 0.501

[Se] [selenium] + [Ga]
Conditions | mass density [kg/m3]
[1] | 4995

[2]
Conditions | specific heat capacity
16.15 K, relaxation calorimetry | 11.99 J/K/kg
16.17 K, relaxation calorimetry | 12 J/K/kg
18.16 K, relaxation calorimetry | 16.65 J/K/kg and 16.64 J/K/kg
18.18 K, relaxation calorimetry | 16.69 J/K/kg
20.17 K, relaxation calorimetry | 21.87 J/K/kg
20.18 K, relaxation calorimetry | 21.87 J/K/kg
20.19 K, relaxation calorimetry | 21.91 J/K/kg
22.2 K, relaxation calorimetry | 27.43 J/K/kg and 27.5 J/K/kg
22.21 K, relaxation calorimetry | 27.42 J/K/kg
24.22 K, relaxation calorimetry | 33.32 J/K/kg and 33.29 J/K/kg
24.23 K, relaxation calorimetry | 33.28 J/K/kg
26.23 K, relaxation calorimetry | 39.37 J/K/kg and 39.38 J/K/kg
26.24 K, relaxation calorimetry | 39.4 J/K/kg
28.25 K, relaxation calorimetry | 45.37 J/K/kg and 45.38 J/K/kg and 45.39 J/K/kg
30.27 K, relaxation calorimetry | 51.28 J/K/kg and 51.24 J/K/kg
30.28 K, relaxation calorimetry | 51.39 J/K/kg
35.31 K, relaxation calorimetry | 66.34 J/K/kg and 66.36 J/K/kg and 66.53 J/K/kg
40.35 K, relaxation calorimetry | 80.84 J/K/kg and 80.98 J/K/kg and 81.11 J/K/kg
45.38 K, relaxation calorimetry | 95.31 J/K/kg
45.39 K, relaxation calorimetry | 94.97 J/K/kg
45.4 K, relaxation calorimetry | 95.04 J/K/kg
50.4 K, relaxation calorimetry | 109.56 J/K/kg
50.42 K, relaxation calorimetry | 108.96 J/K/kg
50.44 K, relaxation calorimetry | 108.89 J/K/kg
55.43 K, relaxation calorimetry | 122.81 J/K/kg
55.45 K, relaxation calorimetry | 122.01 J/K/kg
55.49 K, relaxation calorimetry | 122.14 J/K/kg
60.46 K, relaxation calorimetry | 135.73 J/K/kg
60.49 K, relaxation calorimetry | 134.99 J/K/kg
60.52 K, relaxation calorimetry | 134.92 J/K/kg
65.48 K, relaxation calorimetry | 148.37 J/K/kg
65.53 K, relaxation calorimetry | 147.43 J/K/kg
65.58 K, relaxation calorimetry | 147.3 J/K/kg
70.5 K, relaxation calorimetry | 160.95 J/K/kg
70.57 K, relaxation calorimetry | 159.6 J/K/kg
70.63 K, relaxation calorimetry | 159.47 J/K/kg
75.53 K, relaxation calorimetry | 172.38 J/K/kg
75.61 K, relaxation calorimetry | 170.97 J/K/kg
75.66 K, relaxation calorimetry | 170.77 J/K/kg
80.55 K, relaxation calorimetry | 184.09 J/K/kg
80.66 K, relaxation calorimetry | 182.27 J/K/kg
80.7 K, relaxation calorimetry | 182.34 J/K/kg
85.57 K, relaxation calorimetry | 194.78 J/K/kg
85.7 K, relaxation calorimetry | 192.56 J/K/kg
85.74 K, relaxation calorimetry | 192.9 J/K/kg
90.59 K, relaxation calorimetry | 204.73 J/K/kg
90.72 K, relaxation calorimetry | 202.45 J/K/kg
90.78 K, relaxation calorimetry | 202.18 J/K/kg
95.61 K, relaxation calorimetry | 213.21 J/K/kg
95.73 K, relaxation calorimetry | 211.33 J/K/kg
95.82 K, relaxation calorimetry | 210.32 J/K/kg
100.79 K, relaxation calorimetry | 218.86 J/K/kg and 218.59 J/K/kg
100.93 K, relaxation calorimetry | 219.87 J/K/kg
105.73 K, relaxation calorimetry | 227.87 J/K/kg
105.8 K, relaxation calorimetry | 226.59 J/K/kg
105.86 K, relaxation calorimetry | 225.85 J/K/kg
113.65 K, relaxation calorimetry | 238.83 J/K/kg
113.74 K, relaxation calorimetry | 237.36 J/K/kg
113.8 K, relaxation calorimetry | 236.08 J/K/kg
121.58 K, relaxation calorimetry | 248.59 J/K/kg
121.67 K, relaxation calorimetry | 246.97 J/K/kg
121.74 K, relaxation calorimetry | 245.83 J/K/kg
129.51 K, relaxation calorimetry | 257.33 J/K/kg
129.61 K, relaxation calorimetry | 255.45 J/K/kg
129.66 K, relaxation calorimetry | 254.51 J/K/kg
137.44 K, relaxation calorimetry | 264.59 J/K/kg
137.56 K, relaxation calorimetry | 262.58 J/K/kg and 263.32 J/K/kg
145.45 K, relaxation calorimetry | 269.91 J/K/kg
145.46 K, relaxation calorimetry | 268.03 J/K/kg
145.47 K, relaxation calorimetry | 269.1 J/K/kg
153.32 K, relaxation calorimetry | 274.68 J/K/kg
153.34 K, relaxation calorimetry | 275.63 J/K/kg
153.36 K, relaxation calorimetry | 275.49 J/K/kg
161.23 K, relaxation calorimetry | 282.15 J/K/kg
161.3 K, relaxation calorimetry | 279.06 J/K/kg
161.31 K, relaxation calorimetry | 280.6 J/K/kg
169.16 K, relaxation calorimetry | 286.18 J/K/kg
169.22 K, relaxation calorimetry | 285.24 J/K/kg and 284.23 J/K/kg
177.11 K, relaxation calorimetry | 290.02 J/K/kg
177.12 K, relaxation calorimetry | 289.62 J/K/kg and 289.08 J/K/kg
185.02 K, relaxation calorimetry | 293.18 J/K/kg
185.03 K, relaxation calorimetry | 293.58 J/K/kg
185.05 K, relaxation calorimetry | 293.38 J/K/kg
192.93 K, relaxation calorimetry | 296.41 J/K/kg
192.95 K, relaxation calorimetry | 296.68 J/K/kg
192.96 K, relaxation calorimetry | 296.81 J/K/kg
200.83 K, relaxation calorimetry | 299.5 J/K/kg
200.86 K, relaxation calorimetry | 299.77 J/K/kg
200.88 K, relaxation calorimetry | 299.7 J/K/kg
208.74 K, relaxation calorimetry | 302.93 J/K/kg
208.76 K, relaxation calorimetry | 303 J/K/kg
208.8 K, relaxation calorimetry | 302.6 J/K/kg
216.62 K, relaxation calorimetry | 305.29 J/K/kg
216.66 K, relaxation calorimetry | 304.88 J/K/kg
216.71 K, relaxation calorimetry | 304.61 J/K/kg
224.53 K, relaxation calorimetry | 308.38 J/K/kg
224.58 K, relaxation calorimetry | 307.71 J/K/kg
224.64 K, relaxation calorimetry | 307.17 J/K/kg
232.41 K, relaxation calorimetry | 310.8 J/K/kg
232.48 K, relaxation calorimetry | 309.86 J/K/kg
232.56 K, relaxation calorimetry | 309.05 J/K/kg
240.31 K, relaxation calorimetry | 311.88 J/K/kg
240.39 K, relaxation calorimetry | 310.67 J/K/kg
240.46 K, relaxation calorimetry | 310.2 J/K/kg
248.21 K, relaxation calorimetry | 312.89 J/K/kg
248.3 K, relaxation calorimetry | 312.15 J/K/kg
248.37 K, relaxation calorimetry | 311.47 J/K/kg
256.11 K, relaxation calorimetry | 314.1 J/K/kg
256.21 K, relaxation calorimetry | 313.22 J/K/kg
256.27 K, relaxation calorimetry | 312.68 J/K/kg
262.02 K, Extra sensitive DSC | 315.04 J/K/kg
264.01 K, relaxation calorimetry | 314.5 J/K/kg
264.11 K, relaxation calorimetry | 313.9 J/K/kg
264.17 K, relaxation calorimetry | 313.42 J/K/kg
265 K, Extra sensitive DSC | 315.24 J/K/kg
270 K, Extra sensitive DSC | 315.51 J/K/kg
271.91 K, relaxation calorimetry | 315.31 J/K/kg
272.02 K, relaxation calorimetry | 314.5 J/K/kg
272.07 K, relaxation calorimetry | 314.3 J/K/kg
275 K, Extra sensitive DSC | 316.52 J/K/kg
279.81 K, relaxation calorimetry | 318.13 J/K/kg
279.92 K, relaxation calorimetry | 317.12 J/K/kg
279.96 K, relaxation calorimetry | 317.06 J/K/kg
280 K, Extra sensitive DSC | 317.19 J/K/kg
285 K, Extra sensitive DSC | 318.2 J/K/kg
290 K, Extra sensitive DSC | 319.21 J/K/kg
295 K, Extra sensitive DSC | 319.95 J/K/kg
299.68 K, Extra sensitive DSC | 320.55 J/K/kg
307 K, Extra sensitive DSC | 321.29 J/K/kg
310 K, Extra sensitive DSC | 322.03 J/K/kg
315 K, Extra sensitive DSC | 322.3 J/K/kg
320 K, Extra sensitive DSC | 322.91 J/K/kg
325 K, Extra sensitive DSC | 323.65 J/K/kg
330 K, Extra sensitive DSC | 324.52 J/K/kg
335 K, Extra sensitive DSC | 325.93 J/K/kg
340 K, Extra sensitive DSC | 325.93 J/K/kg
345 K, Extra sensitive DSC | 326.94 J/K/kg
350 K, Extra sensitive DSC | 328.02 J/K/kg
354.61 K, Extra sensitive DSC | 329.03 J/K/kg
358.6 K, Extra sensitive DSC | 328.76 J/K/kg
